# In paper PMC2913396 (Molecular Systems Biology, 2010):
# “Also recorded” adds a separate entry of the source.
# How the values were obtained:
# [1] = test system: HCV replicon RNA in Huh-luc/neo-ET cells; assay: replicon RNA copy number by quantitative RT-PCR; type: cell-based, hepatitis C virus; conditions: 72 h, normalized to total RNA
# [2] = test system: HMGCR; assay: HMGCR protein expression by western blot; type: cell-based, human; conditions: Huh-7 cells, 16 h
# [3] = test system: Huh-7 cells; assay: host proliferation counterscreen measuring cellular ATP levels; type: cell-based, human; conditions: 48 h
# [4] = test system: HCV genotype 1b subgenomic replicon in Huh-luc/neo-ET cells; assay: cHTS luciferase assay; type: cell-based, hepatitis C virus; conditions: for effect on replicon replication (in words): single agent, 48 h luciferase
# [5] = ref Pyrah et al, 2001; Cenedella et al, 2004; cited from earlier work
SMILES,effect on host cell ATP levels (in words) [3],effect on replicon replication (in words) [4],further results
CCC(C)(C)C(=O)O[C@H]1C[C@@H](C)C=C2C=C[C@H](C)[C@H](CC[C@@H]3C[C@@H](O)CC(=O)O3)[C@H]21 [Simvastatin],correlate with a reduction in host cell ATP levels,proviral effect; also recorded: increased HCV replication,"replicon RNA copy number, RT-qPCR (in words) [1]: proviral effects; HMGCR protein expression (in words) [2]: apparent overexpression of HMGCR"
CCN(CC)CCO[C@H]1CC[C@@]2(C)C(=CC[C@@H]3[C@@H]2CC[C@]2(C)C(=O)CC[C@@H]32)C1.Cl [U18666A],–,inhibited HCV replication with marginal impact on host cell ATP levels,HMGCR protein expression (in words) [2]: overexpression of HMGCR; side effects [5]: rapid induction of cataracts and irreversible lens damage in animals; IC50 of HCV replication inhibition (in words) ([4]; 48 h): nM range
CC(C)=CCC/C(C)=C/CC/C(C)=C/CO [Farnesol],–,strongly promoted replicon replication,–
CC(Cc1ccc(C(C)(C)C)cc1)CN1C[C@@H](C)O[C@@H](C)C1 (stereo partly shown) [Fenpropimorph],–,inhibited HCV replication with marginal impact on host cell ATP levels,–
COC(=O)[C@H](CC(C)C)NC(=O)c1ccc(NC[C@@H](N)CS)cc1-c1ccccc1 [GGTI-286],–,antiviral activity,–
CCC(C)(C)c1ccc(CC(C)CN2C[C@@H](C)O[C@@H](C)C2)cc1 (stereo partly shown) [Amorolfine],–,inhibited HCV replication with marginal impact on host cell ATP levels,–
CC(C)CCC[C@@H](C)[C@H]1CC(=O)C2=C3CC[C@H]4C[C@@H](O)CC[C@]4(C)[C@H]3CC[C@@]21C [Colestolone],–,inhibited HCV replication with marginal impact on host cell ATP levels,–
CCOP(=O)(OCC)C(=Cc1cc(C(C)(C)C)c(O)c(C(C)(C)C)c1)P(=O)(OCC)OCC [SR-12813],–,strongly promoted replicon replication,–
CCCCCCCCCCCCCCOc1ccc(C(=O)O)o1 [TOFA],modest depletion of ATP at most antiviral concentrations,–,–
NCCCC(O)(P(=O)(O)O)P(=O)(O)O [Alendronate],reduce host cell ATP levels,–,–
CCN(CC)CCOc1ccc(C(=C(Cl)c2ccccc2)c2ccccc2)cc1 [Clomiphene],reduce host cell ATP levels,–,–
CC(C)N1CCN(c2ccc(OCC3COC(Cn4cncn4)(c4ccc(Cl)cc4Cl)O3)cc2)CC1 (stereo not shown) [Terconazole],reduce host cell ATP levels,–,–
CC(C)n1c(/C=C/C(O)CC(O)CC(=O)O)c(-c2ccc(F)cc2)c2ccccc21 (stereo not shown) [fluvastatin],–,proviral effect,–
C=C(CC[C@]12O[C@H](C(=O)O)[C@@](O)(C(=O)O)[C@](C(=O)O)(O1)[C@H](OC(=O)/C=C/[C@@H](C)C[C@@H](C)CC)[C@H]2O)[C@@H](OC(C)=O)[C@H](C)Cc1ccccc1 [Squalestatin],–,strongly promoted replicon replication,"replicon RNA copy number, RT-qPCR (in words) [1]: proviral effects; HMGCR protein expression (in words) [2]: overexpression of HMGCR"
